Patent US8278338B2 (priority 2004, dated 2012)
Like-named read-outs stand apart in the source and are kept apart here.

Experiments:
human μ-opiate receptor = biological target: T1, human μ-opiate receptor (Homo sapiens, UniProt P35372); test: Affinity for the human μ-opiate receptor, [3H]-naloxone displacement (SPA) on CHO-K1 receptor membrane preparation; type: binding; conditions: for μ-Opioid receptor affinity (% inhibition at 1 μmol./l): 1 μmol./l test substance
T1 construct: purchased Perkin Elmer, Zaventem, Belgium RB-HOM; host or cells: CHO-K1 cells
Protocol: The receptor affinity for the human μ-opiate receptor was determined in a homogeneous batch on microtitre plates. To that end, serial dilutions of the substances to be tested were incubated for 90 minutes at room temperature with a receptor membrane preparation (15-40 μg of protein/250 μl of incubation batch) of CHO-K1 cells, which express the human μ-opiate receptor (RB-HOM receptor membrane preparation from Perkin Elmer, Zaventem, Belgium), in the presence of 1 nmol./l of the radioactive ligand [^3H]-naloxone (NET719, Perkin Elmer, Zaventem, Belgium) and 1 mg of WGA-SPA beads (wheatgerm agglutinin SPA beads from Amersham/Pharmacia, Freiburg, Germany) in a total volume of 250 μl. The incubation buffer used was 50 mmol./l of Tris-HCl supplemented with 50 μM MgCl2 and 0.05% bovine serum albumin. In order to determine non-specific binding, 100 μmol./l of naloxone were additionally added. When the ninety-minute incubation time was complete, the microtitre plates were centrifuged off for 20 minutes at 1000 g and the radioactivity was measured in a β-counter (Microbeta-Trilux, PerkinElmer, Freiburg, Germany). The percentage displacement of the radioactive ligand from its binding to the human μ-opiate receptor at a concentration of the test substances of 1 μmol./l was determined and stated as the percentage inhibition of specific binding. […] Ki values for the test substances were obtained by conversion by means of the Cheng-Prusoff equation (Cheng and Prusoff 1973).

5-HT reuptake = 5-HT reuptake (Rattus norvegicus, UniProt P31652); test: biochemical; conditions: rat synaptosomes; for Ki: Cheng-Prusoff; for inhibition at 10 µM: read-out: Inhibition of 5-HT reuptake (% inhibition at 10 μmol./l), 10 μmol./l
Description: In order to be able to carry out these in vitro studies, synaptosomes were freshly isolated from areas of rat brain. […] For NA reuptake, these vesicular particles were isolated from the hypothalamus of male rat brains, and for 5HT reuptake, they were isolated from the medulla+pons region.
The IC50 values were obtained with the aid of the “Figure P” computer program (Version 6.0, Biosoft, Cambridge, England). […] The “Ligand” computer program (Version 4, Biosoft, England) was used to show KD values.

NA reuptake = biological target: T2, NA reuptake (Rattus norvegicus, UniProt Q63380); test: Inhibition of NA reuptake in rat brain synaptosomes (hypothalamus, P2 fraction); type: biochemical; conditions: for inhibition at 10 µM: 10 μmol./l
T2 construct: isolated from the hypothalamus of male rat brains; from tissue; host or cells: rat brain synaptosomes (P2 fraction), hypothalamus of male rats
Protocol: In order to be able to carry out these in vitro studies, synaptosomes were freshly isolated from areas of rat brain. A so-called “P2” fraction was used in each case, which was prepared exactly according to the procedure of Gray, E. G. and Whittaker, V. P. (1962, J. Anat. […], 79-88). For NA reuptake, these vesicular particles were isolated from the hypothalamus of male rat brains, and for 5HT reuptake, they were isolated from the medulla+pons region.
IC50 values were obtained thereby which can be converted into inhibitor constants (Ki) according to the “Cheng-Prusoff equation” (Cheng, Y. C. and Prusoff, W. H., 1973, Biochem. Pharmacol. 22, 3099-3108). The IC50 values were obtained with the aid of the “Figure P” computer program (Version 6.0, Biosoft, Cambridge, England). Km values were calculated according to Lineweaver, H. and Burk, D. (1934, J. Am. Chem. Soc. 56, 658-666). The “Ligand” computer program (Version 4, Biosoft, England) was used to show KD values.

rat = test: Formalin test in the rat (phase 2, chronic pain component); type: in vivo
Protocol: (§1) The formalin test (Dubuisson, D. and Dennis, S. G., 1977, Pain, 4, 161-174) represents a model for acute and chronic pain. By means of a single formalin injection into the dorsal side of a rear paw, a biphase nociceptive reaction was induced in freely mobile test animals; the reaction was assessed by observing three behaviour patterns which are clearly distinguishable from one another. The reaction is two-phase: phase 1=immediate reaction (duration up to 10 minutes; shaking of the paw, licking), phase 2=late reaction (after a rest phase; likewise shaking of the paw, licking; duration up to 60 minutes). The first phase reflects a direct stimulation of the peripheral nocisensors with a high spinal nociceptive input or glutamate release (acute pain phase); the second phase reflects a spinal and peripheral hypersensitisation (chronic pain phase). In the studies presented here, the chronic pain component (phase 2) was evaluated.
Formalin was administered subcutaneously in a volume of 50 μl and a concentration of 5% into the dorsal side of the right rear paw of each animal. The specific behavioural changes, such as lifting and shaking of the paw, weight shifting of the animal and biting and licking reactions, were observed and recorded over an observation period of from 21 to 27 minutes after the formalin injection. The various behaviours were combined to give the so-called pain rate (PR) which, based on 3-minute intervals, represents the calculation of a mean nociceptive reaction. The PR was calculated on the basis of a numerical weighting (=in each case factor 1, 2, 3) of the observed behaviours (corresponding to behaviour score 1, 2, 3) and was calculated using the following formula:
The size of the group was 10 animals (n=10).
(§2) On the basis of the PR calculations, the activity of the substance was determined in percent as the change relative to a control. The ED50 was determined by means of regression analysis.

mouse = test: Formalin test in the mouse (phase 2, chronic pain component); type: in vivo; conditions: for ED50: iv, read-out: Inhibition of the nociceptive behaviour versus control, ED50 value
Protocol: as §1
Formalin was administered subcutaneously in a volume of 20 μl and a concentration of 1% into the dorsal side of the right rear paw of each animal. The specific behavioural changes, such as lifting and shaking of the paw (score 3), were observed and recorded over an observation period of from 21 to 24 minutes after the formalin injection. The size of the group was 10 animals (n=10).
as §2

[1] = inhibition of specific [3H]-naloxone binding
[2] = 21.5 mg/kg i.v., phase 2, 21.5 mg/kg
[3] = Cheng-Prusoff from IC50, [3H]-naloxone 1 nmol./l, read-out: μ-Opioid receptor affinity, Ki

Chain of 5-HT reuptake (P31652 whole entry): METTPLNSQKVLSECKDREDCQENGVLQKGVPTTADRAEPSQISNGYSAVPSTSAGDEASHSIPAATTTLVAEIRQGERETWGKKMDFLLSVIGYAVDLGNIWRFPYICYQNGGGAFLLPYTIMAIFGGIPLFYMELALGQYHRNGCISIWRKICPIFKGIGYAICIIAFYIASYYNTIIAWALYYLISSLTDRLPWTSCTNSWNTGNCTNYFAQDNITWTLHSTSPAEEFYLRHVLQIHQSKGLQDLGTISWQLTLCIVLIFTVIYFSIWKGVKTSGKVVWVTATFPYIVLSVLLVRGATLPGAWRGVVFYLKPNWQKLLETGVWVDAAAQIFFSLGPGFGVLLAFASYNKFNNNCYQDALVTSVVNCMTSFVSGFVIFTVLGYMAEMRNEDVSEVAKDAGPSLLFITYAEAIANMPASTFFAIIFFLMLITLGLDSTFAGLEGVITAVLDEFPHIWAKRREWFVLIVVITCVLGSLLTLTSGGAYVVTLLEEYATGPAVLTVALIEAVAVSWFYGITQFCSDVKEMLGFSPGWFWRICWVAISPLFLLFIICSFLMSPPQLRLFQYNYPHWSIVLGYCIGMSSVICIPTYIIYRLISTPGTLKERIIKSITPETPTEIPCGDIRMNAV
T1 sequence (P35372 whole entry): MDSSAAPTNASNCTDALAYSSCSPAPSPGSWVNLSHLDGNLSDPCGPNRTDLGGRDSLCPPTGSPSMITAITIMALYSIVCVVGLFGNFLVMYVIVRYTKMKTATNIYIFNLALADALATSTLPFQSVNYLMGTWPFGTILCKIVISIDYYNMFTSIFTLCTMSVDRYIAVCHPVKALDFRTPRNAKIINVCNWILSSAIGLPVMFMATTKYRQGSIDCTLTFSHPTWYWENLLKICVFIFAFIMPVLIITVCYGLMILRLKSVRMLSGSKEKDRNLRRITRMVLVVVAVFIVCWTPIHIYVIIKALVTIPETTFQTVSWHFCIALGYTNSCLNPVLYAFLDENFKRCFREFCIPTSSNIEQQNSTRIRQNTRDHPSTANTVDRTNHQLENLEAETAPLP
T2 sequence (Q63380 1-617): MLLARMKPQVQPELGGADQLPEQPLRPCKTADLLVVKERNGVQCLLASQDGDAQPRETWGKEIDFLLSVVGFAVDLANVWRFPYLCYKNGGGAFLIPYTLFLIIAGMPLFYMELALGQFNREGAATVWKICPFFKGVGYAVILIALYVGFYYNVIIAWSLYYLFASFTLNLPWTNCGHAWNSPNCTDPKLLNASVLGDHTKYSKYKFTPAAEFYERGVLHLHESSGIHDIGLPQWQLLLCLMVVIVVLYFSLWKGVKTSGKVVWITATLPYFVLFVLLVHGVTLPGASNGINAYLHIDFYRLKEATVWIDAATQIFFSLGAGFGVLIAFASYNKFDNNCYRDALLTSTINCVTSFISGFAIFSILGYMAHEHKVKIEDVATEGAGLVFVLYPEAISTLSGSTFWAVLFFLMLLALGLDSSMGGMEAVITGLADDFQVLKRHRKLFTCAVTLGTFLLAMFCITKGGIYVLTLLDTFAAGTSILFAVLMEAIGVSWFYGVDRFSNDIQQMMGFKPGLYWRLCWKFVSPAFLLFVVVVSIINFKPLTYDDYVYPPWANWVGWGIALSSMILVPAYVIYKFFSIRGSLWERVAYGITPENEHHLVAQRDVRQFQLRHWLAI

Compound: CN(C)CC1Cc2ccccc2C1(O)c1cccnc1 (single isomer, unassigned) [Example 2, 2-dimethylaminomethyl-1-pyridin-3-yl-indan-1-ol]
- μ-Opioid receptor affinity (% inhibition at 1 μmol./l) (human μ-opiate receptor; [1]): 60%
- Inhibition of 5-HT reuptake (% inhibition at 10 μmol./l) (5-HT reuptake): 89%
- Inhibition of NA reuptake (% inhibition at 10 μmol./l) (NA reuptake): 43%
- Inhibition of the nociceptive behaviour versus control (% inhibition) (rat; 46.4 mg/kg i.v., phase 2): −80.6%

Compound: COc1ccc2c(c1)CC(CN(C)C)=C2c1cccnc1 [Example 6, (6-methoxy-3-pyridin-3-yl-1H-inden-2-ylmethyl)-dimethyl-amine]
- Ki (human μ-opiate receptor): 150 nM
- Ki (5-HT reuptake): 28 nM
- ED50 (mouse; phase 2, regression analysis): 1.64 mg/kg
- inhibition at 10 µM (NA reuptake): 31%

Compound: CN(C)CC1Cc2ccccc2C1c1cccnc1 (stereo not shown) [Example 4, dimethyl-(1-pyridin-3-yl-indan-2-ylmethyl)-amine]
- inhibition at 1 µM (human μ-opiate receptor; 1.5 h, read-out: μ-Opioid receptor affinity (% inhibition at 1 μmol./l), 1 μmol./l test substance, inhibition of specific [3H]-naloxone binding): 31%
- inhibition at 10 µM (5-HT reuptake): 86%
- inhibition at 10 µM (NA reuptake): 46%
- Inhibition of the nociceptive behaviour versus control (% inhibition) (rat; 4.64 mg/kg i.v., phase 2): −61.60%

Compound: CN(C)CC1CCSc2ccccc2C1(O)c1cccnc1 (stereo not shown) [Example 14, 4-dimethylaminomethyl-5-pyridin-3-yl-2,3,4,5-tetrahydro-benzo[b]thiepin-5-ol]
- μ-Opioid receptor affinity (% inhibition at 1 μmol./l) (human μ-opiate receptor; [1]): −14%
- Inhibition of 5-HT reuptake (% inhibition at 10 μmol./l) (5-HT reuptake): 44%
- Inhibition of NA reuptake (% inhibition at 10 μmol./l) (NA reuptake): 54%
- Inhibition of the nociceptive behaviour versus control (% inhibition) (rat; [2]): −53.2%

Compound: CN(C)CC1=C(c2cccnc2)c2ccccc2CCC1 [Example 12, dimethyl-(5-pyridin-3-yl-8,9-dihydro-7H-benzocyclohepten-6-ylmethyl)-amine]
- Ki (human μ-opiate receptor; [3]): 380 nM
- Ki (5-HT reuptake): 120 nM
- Inhibition of the nociceptive behaviour versus control (% inhibition) (mouse; 14.7 mg/kg i.v., phase 2): −45.8%
- inhibition at 10 µM (NA reuptake): 20%

Compound: CN(C)CC1=C(c2cccnc2)c2ccccc2C1 [Example 3, dimethyl-(3-pyridin-3-yl-1H-inden-2-ylmethyl)-amine]
- Ki (human μ-opiate receptor): 240 nM
- Ki (5-HT reuptake): 13 nM
- ED50 (mouse; phase 2, regression analysis): 3.32 mg/kg
- inhibition at 10 µM (NA reuptake): 30%

Compound: CN(C)CC1=C(c2cccnc2)c2ccccc2CC1 [Example 9, dimethyl-(1-pyridin-3-yl-3,4-dihydro-naphthalen-2-ylmethyl)-amine]
- Ki (human μ-opiate receptor; [3]): 560 nM
- inhibition at 10 µM (5-HT reuptake): 56%
- inhibition at 10 µM (NA reuptake): 26%
- Inhibition of the nociceptive behaviour versus control (% inhibition) (rat; 10 mg/kg i.v., phase 2): −97.0%

Compound: CN(C)CC1CCSc2ccccc2C1(O)c1cccnc1 (stereo not shown) [Example 13, 4-dimethylaminomethyl-5-pyridin-3-yl-2,3,4,5-tetrahydro-benzo[b]thiepin-5-ol]
- μ-Opioid receptor affinity (% inhibition at 1 μmol./l) (human μ-opiate receptor; [1]): −23%
- inhibition at 10 µM (5-HT reuptake): 41%
- inhibition at 10 µM (NA reuptake): 45%
- Inhibition of the nociceptive behaviour versus control (% inhibition) (rat; [2]): −53.6%

Compound: COc1ccc(C(CN(C)C)C2(O)CCCCC2)cc1 (stereo not shown) [Venlafaxin, venlafaxin, reference compound]
- μ-Opioid receptor affinity (% inhibition at 1 μmol./l) (human μ-opiate receptor; [1]): −1%
- Inhibition of the nociceptive behaviour versus control, ED50 value (mouse; i.v., phase 2, regression analysis): 2.60 mg/kg
